# Measured values: patent US20230242679A1, “BISPECIFIC ANTIBODY THERAPIES” (priority 2022, published 2023)
# Entries after “also recorded” stand apart in the source; their conditions may differ. Read-outs that look alike come from different tables or passages of the source.
# Columns and labels:
# [1] = system: influenza (H5N1); conditions: Gemmus Pharma in vivo influenza (H5N1) studies; listed as CT01681, monosodium salt; cited from earlier work
# [2] = system: influenza (H1N1); assay type: in vivo, mice; conditions: for IL-2 in vivo / IL-6 in vivo / IL-10 in vivo: CytoAgents in vivo influenza (H1N1) studies
# [3] = system: CD19-targeting CAR T-cells co-cultured with CD19+Raji lymphoma target cells; experiment: Cytokine levels in co-culture of CD19 CAR T-cells with Raji cells; assay type: cell-based, human; conditions: for Levels of IL-6 / Levels of TNF-α / Levels of IFN-γ: CAR T-cells:Raji cells 10:1; for Levels of IL-6: FIG. 1A; for Levels of TNF-α: FIG. 1B; for Levels of IFN-γ: FIG. 1C
# From the text: The impact of CT01681 on the efficacy of CD19-targeting CAR T-cells in vitro was studied as a surrogate measure of the impact of CTO1681 on T cell function downstream of administering bispecific antibody therapy to a subject. […] CD3 T cells were sorted from one healthy donor PBMCs, stimulated for a short period of time and transduced with CD19 CAR-T lentivirus (LV) containing CD28 and CD3ζ domains. CD19 CAR T-cells were expanded for 6 days and used in the assay. CD19-targeting CD3 T-cells were treated with 5 increasing concentrations of CT01681 (0.36 nM, 1.8 nM, 9 nM, 45 nM, and 225 nM) or vehicle for 30 minutes prior to, and during co-culture with CD19+Raji lymphoma target cells. Media alone, vehicle, and positive control (dexamethasone) wells were included. Following initial treatment, CAR T-cells (Effectors) were co-cultured with fluorescently labeled CD19+Raji tumor cells (Target cells) at 3 different Effector: Target cell ratios (10:1, 5:1 and 1:1) and treated with 5 different concentrations of CT01681 or vehicle for 24 hours. Target cells (Raji cells) were fluorescently labelled with CPD (eBioscience™ Cell Proliferation Dye eFluor™) prior to co-culture to distinguish the Raji cells from the effector cells and allow for analysis of target viability by flow cytometry. Following incubation, supernatant was collected and levels of pro-inflammatory cytokines IL-6 and TNF-α were measured by multiplex Luminex assay and […] was measured via time-resolved fluorescence resonance energy transfer (TR-FRET) assay. These cytokines were selected for quantification as they are early cytokines released following CAR T-cell infusion and bispecific antibody therapy administration in vivo that causes hyperactivation of the immune system resulting in acute systemic inflammation, CRS, multiorgan failure, and possible death. In addition, flow cytometry was used to measure the level of Raji tumor/target cell death following CAR T treatment across CTO1681 conditions to measure impact of CTO1681 with CAR T-cell efficacy. Co-cultures were stained with viability dye 7-AAD for measuring viability.
# [4] = system: CD19+Raji tumor cells; experiment: Raji target cell killing by CD19 CAR T-cells (flow cytometry, 7-AAD); assay type: cell-based, human; conditions: 0.36-225 nM; 24 hours; Effector:Target 10:1, 5:1, 1:1; listed as CT01681, monosodium salt
# From the text: The impact of CT01681 on the efficacy of CD19-targeting CAR T-cells in vitro was studied as a surrogate measure of the impact of CTO1681 on T cell function downstream of administering bispecific antibody therapy to a subject. […] CD3 T cells were sorted from one healthy donor PBMCs, stimulated for a short period of time and transduced with CD19 CAR-T lentivirus (LV) containing CD28 and CD3ζ domains. CD19 CAR T-cells were expanded for 6 days and used in the assay. CD19-targeting CD3 T-cells were treated with 5 increasing concentrations of CT01681 (0.36 nM, 1.8 nM, 9 nM, 45 nM, and 225 nM) or vehicle for 30 minutes prior to, and during co-culture with CD19+Raji lymphoma target cells. Media alone, vehicle, and positive control (dexamethasone) wells were included. […] Following incubation, supernatant was collected and levels of pro-inflammatory cytokines IL-6 and TNF-α were measured by multiplex Luminex assay and […] was measured via time-resolved fluorescence resonance energy transfer (TR-FRET) assay. These cytokines were selected for quantification as they are early cytokines released following CAR T-cell infusion and bispecific antibody therapy administration in vivo that causes hyperactivation of the immune system resulting in acute systemic inflammation, CRS, multiorgan failure, and possible death. […]
# [5] = system: normal human PBMC; experiment: Cytokine release assay in normal human PBMC stimulated with LPS or Poly (I:C); assay type: cell-based; conditions: for Number of cytokines reduced of those analyzed: LPS or Poly(I:C), pooled and individual donor results
# [6] = system: CRS in SCID or humanized mice with Raji-luc tumor cells; experiment: Mouse model of Raji-luc tumor with CAR-T induced CRS (Example 2); conditions: IP, BID for 7 days
# [7] = listed as CT01681, monosodium salt
# [8] = Effector:Target 10:1, 0.36-225 nM, 24 hours, Luminex
# [9] = LPS, 24 h supernatant, CTO1681 750 μM
# [10] = Poly(I:C), 24 h supernatant, CTO1681 750 μM
smiles,measurement,setting,value
"CC#CC[C@H](C)[C@H](O)/C=C/[C@@H]1[C@H]2c3cccc(CCCC(=O)[O-])c3O[C@H]2C[C@H]1O.[Na+] [CTO1681, (+)-[1R, 2R, 3aS, 8bS]-2,3,3a,8b-tetrahydro-2-hydroxy-1-[(E)-(3S,4S)-3-hydroxy-4-methyl-1-octen-6-ynyl)-1Hcyclopenta[b]benzofuran-5-butanoic acid, monosodium salt]",IL-2 in vivo,[1],reduced; also recorded: significantly suppressed
same,IL-6 in vivo,[1],reduced; also recorded: significantly suppressed
same,IL-8 in vivo,[1],reduced; also recorded: significantly suppressed
same,IL-10 in vivo,[1],reduced; also recorded: significantly suppressed
same,IL-2 in vivo,[2]; [7],significantly suppressed
same,IL-6 in vivo,[2]; [7],significantly suppressed
same,IL-10 in vivo,[2]; [7],significantly suppressed
same,IL-2 in vivo,[2]; monosodium salt,reduced
same,IL-6 in vivo,[2]; monosodium salt,reduced
same,IL-10 in vivo,[2]; monosodium salt,reduced
same,IL-8 in vivo,"[2]; mouse, in vivo",significantly suppressed
same,IFN-α concentrations in vivo,"[2]; mouse, in vivo, listed as CT01681, monosodium salt",no significant repression
same,IFN-α concentrations in vivo,"[2]; mouse, in vivo, monosodium salt",not suppressed
same,Levels of IL-6,[3]; [7],dose-dependently lowers
same,Levels of IL-6,[3]; monosodium salt,dose-dependently reduced
same,Levels of TNF-α,[3]; [7],dose-dependently lowers
same,Levels of TNF-α,[3]; monosodium salt,dose-dependently reduced
same,Levels of IFN-γ,[3]; [7],dose-dependently lowers
same,Levels of IFN-γ,[3]; monosodium salt,dose-dependently reduced
same,Maximum reduction of IL-6,[3]; [8],~23%
same,Maximum reduction of TNF-α,[3]; [8],approximately 50%
same,Maximum reduction of IFN-γ,"[3]; Effector:Target 10:1, 0.36-225 nM, 24 hours, TR-FRET",~26%
same,IL-6 with increasing concentrations,"[3]; three CAR-T:Raji ratios (10:1, 5:1, 1:1), FIG. 1D",reduction
same,TNF-α with increasing concentrations,"[3]; three CAR-T:Raji ratios (10:1, 5:1, 1:1), FIG. 1E",reduction
same,IFN-γ with increasing concentrations,"[3]; three CAR-T:Raji ratios (10:1, 5:1, 1:1), FIG. 1F",reduction
same,Effect on tumor/target cell killing efficacy of CD19 CAR T-cells,[4],does not interfere; also recorded: absence of an effect; also recorded: did not impact or interfere
same,Nominal reduction in ex vivo production of IFNα,"[5]; LPS or Poly(I:C) stimulated PBMC, statistically significant",less than 2 fold
same,Number of cytokines reduced of those analyzed,[5]; [7],21 of the 29
same,Number of cytokines reduced of those analyzed,[5]; monosodium salt,21
same,Cytokine response CCL2 (MCP-1) (significant reduction),[5]; [9],YES
same,Cytokine response CCL3 (MIP1 α) (significant reduction),[5]; [9],YES
same,Cytokine response CCL5 (RANTES) (significant reduction),[5]; [9],YES
same,Cytokine response CXCL9 (MIG) (significant reduction),[5]; [9],YES
same,Cytokine response CXCL10 (IP-10) (significant reduction),[5]; [9],YES
same,Cytokine response FGF (significant reduction),[5]; [9],YES
same,Cytokine response GM-CSF (significant reduction),[5]; [9],YES
same,Cytokine response IFN-α2 (significant reduction),[5]; [9],YES
same,Cytokine response IFN-γ (significant reduction),[5]; [9],YES
same,Cytokine response IL-1α (significant reduction),[5]; [9],YES
same,Cytokine response IL-1β (significant reduction),[5]; [9],YES
same,Cytokine response IL-4 (significant reduction),[5]; [9],YES
same,Cytokine response IL-5 (significant reduction),[5]; [9],YES
same,Cytokine response IL-9 (significant reduction),[5]; [9],YES
same,Cytokine response IL-12 (significant reduction),[5]; [9],YES
same,Cytokine response IL-13 (significant reduction),[5]; [9],YES
same,Cytokine response IL-15 (significant reduction),[5]; [9],YES
same,Cytokine response IL-17 (significant reduction),[5]; [9],YES
same,Cytokine response IL-18 (significant reduction),[5]; [9],YES
same,Cytokine response PDGF (significant reduction),[5]; [9],YES
same,Cytokine response TNF-α (significant reduction),[5]; [9],YES
same,Cytokine response CCL2 (MCP-1) (significant reduction),[5]; [10],YES
same,Cytokine response CCL5 (RANTES) (significant reduction),[5]; [10],YES
same,Cytokine response CXCL9 (MIG) (significant reduction),[5]; [10],YES
same,Cytokine response CXCL10 (IP-10) (significant reduction),[5]; [10],YES
same,Cytokine response IFN-α2 (significant reduction),[5]; [10],YES
same,Cytokine response IFN-γ (significant reduction),[5]; [10],YES
same,Cytokine response IL-1α (significant reduction),[5]; [10],YES
same,Cytokine response IL-1β (significant reduction),[5]; [10],YES
same,Cytokine response IL-4 (significant reduction),[5]; [10],YES
same,Cytokine response IL-5 (significant reduction),[5]; [10],YES
same,Cytokine response IL-12 (significant reduction),[5]; [10],YES
same,Cytokine response IL-13 (significant reduction),[5]; [10],YES
same,Cytokine response IL-15 (significant reduction),[5]; [10],YES
same,Cytokine response IL-18 (significant reduction),[5]; [10],YES
same,Cytokine response PDGF (significant reduction),[5]; [10],YES
same,Cytokine response TNF-α (significant reduction),[5]; [10],YES
same,Survival benefits versus dexamethasone,[6],greater survival benefits
